# From patent US11401294B2, “Co-crystal forms of a novobiocin analog and proline” (Reata Pharmaceuticals, Inc., priority 2018, dated 2022)
# Where two headings read alike, the source gives them in different places. Marks after values point to notes of the source that are not given here.
# What was measured:
# Hsp90 = details: Kusuma (2012) and Ma (2015); cited from earlier work
# neurons = details: Kusuma (2012); cited from earlier work
# in vivo = details: male, C57BL/6, mouse, po, 1000 mg/kg
# Method: Blood samples for plasma isolation were collected at 0.25, 0.5, 1, 2, 4, 8, and 24 hours post-dose, using a separate group (n=5/group/time point) of mice for each time point, as summarized in Table 14 below. Plasma samples were analyzed for concentrations of 4a by LC/MS/MS methodology as described below.
# 4a was extracted from K3EDTA-fortified plasma samples using a protein precipitation method. In a well of a polypropylene microplate (96-well), 20 μL of a 2.5-ng/mL D3-4a (internal standard, IS) solution prepared in acetonitrile/H2O (1:1) was added, followed by addition of 20 μL of plasma sample. The plate was sealed with sealing tape (Phenomenex, AH0-7362) and gently mixed with a vortex-mixer for 1 minute. The solution was pipetted into a well of a polypropylene plate (96-well, 2 mL, Phenomenex, AH0-7194) that contained 500 μL of methanol. The plate was sealed and vortex-mixed for 5 minutes followed by centrifugation at 3000×g for 3 minutes at room temperature. A 300-μL aliquot of the supernatant was transferred to a new well that contained 300 μL of deionized water. After gentle mixing, the plate was sealed and placed in an LC autosampler maintained at 12° C., and a 10-μL aliquot was injected into an LC/MS/MS system for quantitative analysis of 4a.
# Liquid chromatographic separation of 4a was achieved by a reversed-phase analytical column with mobile phase solution containing H2O, acetonitrile, and formic acid. The chromatographed analyte was detected by a Waters Xevo TQ-S triple quadrupole mass spectrometer operating in multiple-reaction-monitoring (MRM) mode. Chromatographed peak areas for quality control samples, calibration standards, and study samples were integrated using MassLynx software V4.1 (Waters Corp.).
# Pharmacokinetic parameter estimates were obtained from non-compartmental analysis of the mean 4a plasma concentration-time data for each dose group using WinNonlin™ software version 6.3 (Pharsight Corp., Cary, N.C.). […] The time of the last measurable concentration was defined as the time after which 4a concentrations were below the limit of quantitation (BLQ) in the majority of animals for each dose group.
# [1] = Systemic exposure to 4a after single oral gavage (suspension) or loose-filled capsule in monkeys (plasma LC/MS/MS, PK); assay type: in vivo, male cynomolgus monkeys; details: for AUC(0-t): read-out: AUC(0-t), mean (±SD); for Cmax: read-out: Cmax, mean (±SD); for Tmax: read-out: Tmax (median)
# Method: Dosing of Material A accounted for the presence of proline on a weight basis. Blood samples for plasma isolation were collected at […], 0.5, 1, 2, 4, 8, 12, and 24 hours post-dose from each monkey.
# [2] = as above; assay type: in vivo; details: male, cynomolgus, cynomolgus monkey, oral gavage suspension 30 mg/kg, 0.25 hr, read-out: 4a Plasma Concentration, mean (±SD)
# [3] = male, cynomolgus, cynomolgus monkey, plasma, oral gavage suspension 30 mg/kg, read-out: 4a Plasma Concentration, mean (±SD)
# [4] = male, cynomolgus, cynomolgus monkey, plasma, oral gavage suspension 30 mg/kg
# [5] = male, cynomolgus, cynomolgus monkey, plasma, oral, capsule 50 mg, read-out: 4a Plasma Concentration, mean (±SD)
# [6] = male, cynomolgus, cynomolgus monkey, plasma, oral, capsule 50 mg, BLQ values included as 1/2 LLOQ (0.200 ng/mL), read-out: 4a Plasma Concentration, mean (±SD)
# [7] = male, cynomolgus, cynomolgus monkey, plasma, po, 50 mg capsule
compound,measurement,setting,value
"CO[C@@H]1[C@@H](O)[C@@H](O)C(Oc2ccc(CCNC(C)=O)c(-c3cccc(F)c3)c2)OC1(C)C (single isomer, unassigned) [Form 4]",potency in Hsp70-independent inhibition of Hsp90,Hsp90,excellent potency
same,neuronal protective activity,neurons,high neuronal protective activity
"CO[C@@H]1[C@@H](O)[C@@H](O)[C@H](Oc2ccc(CCNC(C)=O)c(-c3cccc(F)c3)c2)OC1(C)C [amorphous 4a, N-(2-(5-(((2R,3R,4S,5R)-3,4-dihydroxy-5-methoxy-6,6-dimethyltetra-hydro-2H-pyran-2-yl)oxy)-3′-fluoro-[1,1′-biphenyl]-2-yl)ethyl)-acetamide]",AUC(0-t),in vivo,2880 ng·h/mL
same,Cmax,in vivo,6760 ng/mL
same,Tmax,in vivo,15 min
same,concentration at 0.5 h,in vivo,3060 ± 1600 ng/mL
same,concentration at 1 h,in vivo,359 ± 140 ng/mL
same,concentration at 2 h,in vivo,80.7 ± 116 ng/mL
same,concentration at 4 h,in vivo,2.28 ± 0.92 ng/mL
same,concentration at 8 h,in vivo,4.01 ± 4.34 ng/mL
same,"4a Plasma Concentration, mean (±SD)","[1]; capsule 50 mg, 24 hr, BLQ values included as 1/2 LLOQ (0.200 ng/mL)",6.11 ± 9.23^c ng/mL
same,concentration at 0.5 h,[1]; [3],129 ± 92 ng/mL
same,concentration at 1 h,[1]; [3],128 ± 56 ng/mL
same,concentration at 2 h,[1]; [3],80.2 ± 26.4 ng/mL
same,concentration at 4 h,[1]; [3],14.1 ± 5.5 ng/mL
same,concentration at 8 h,[1]; [3],1.2 ± 0.45 ng/mL
same,AUC(0-t),[1]; [4],307 ± 96 ng·h/mL
same,Cmax,[1]; [4],160 ± 78 ng/mL
same,Tmax,[1]; [4],30 min
same,concentration at […],"[1]; male, cynomolgus, cynomolgus monkey, plasma, oral, capsule 50 mg, 0.25 hr, read-out: 4a Plasma Concentration, mean (±SD)",15.9 ± 12.9 ng/mL
same,concentration at 0.5 h,[1]; [5],12.3 ± 5.5 ng/mL
same,concentration at 1 h,[1]; [5],5.97 ± 0.95 ng/mL
same,concentration at 2 h,[1]; [6],1.9 ± 1.89 ng/mL
same,concentration at 4 h,[1]; [6],0.2 ng/mL
same,concentration at 8 h,[1]; [6],0.951 ± 1.3 ng/mL
same,concentration at 12 h,"[1]; male, cynomolgus, cynomolgus monkey, plasma, oral, capsule 50 mg, 12 hr, BLQ values included as 1/2 LLOQ (0.200 ng/mL), read-out: 4a Plasma Concentration, mean (±SD)",3.53 ± 5.78 ng/mL
same,concentration at 24 h,"[1]; male, cynomolgus, cynomolgus monkey, plasma, oral, loose-filled capsule 50 mg, 24 hours post-dose (secondary peak), read-out: mean (±SD) 4a plasma concentration",6.11 ± 9.23 ng/mL
same,AUC(0-t),[1]; [7],81.6 ± 105 ng·h/mL
same,Cmax,[1]; [7],19.7 ± 9.4 ng/mL
same,Tmax,[1]; [7],15 min
same,"4a Plasma Concentration, mean (±SD)","[1]; oral gavage suspension 30 mg/kg, 12 hr",BLQ^d
same,"4a Plasma Concentration, mean (±SD)","[1]; oral gavage suspension 30 mg/kg, 24 hr",BLQ^d
same,concentration at […],[2],103 ± 71 ng/mL
